Data set [1] can be described thus: Cytotoxic activity against human HeLa cells assessed as cell viability at 1000 ug/ml incubated for 24 hrs by MTT assay. It is filed as cell-based. The note with it: read-out: Activity. For orientation: Tetrazolium assays rely on reduction of a dye to a coloured formazan, in cell work by metabolically active cells.
The nature of data set [2]: Cytotoxic activity against human HeLa cells assessed as cell viability at 100 ug/ml incubated for 24 hrs by MTT assay. In kind it is cell-based. The note with it: read-out: Activity.
A short description of data set [3]: Cytotoxic activity against human HeLa cells assessed as cell viability at 10 ug/ml incubated for 24 hrs by MTT assay. The following applies: read-out: Activity. It is filed as cell-based.
A short description of data set [4]: Cytotoxic activity against human HeLa cells assessed as cell viability at 1 ug/ml incubated for 24 hrs by MTT assay. It is filed as cell-based. The following applies: read-out: Activity.
A short description of data set [5]: Cytotoxic activity against human HeLa cells assessed as cell viability at 0.1 ug/ml incubated for 24 hrs by MTT assay. In kind it is cell-based. The note with it: read-out: Activity.
Data set [6] can be described thus: Cytotoxic activity against human HeLa cells assessed as reduction in cell viability incubated for 24 hrs by MTT assay. It is filed as cell-based.
The subject of data set [7] is Plasmodium falciparum. The experiment in a line: Antimalarial activity against CQ-sensitive Plasmodium falciparum 3D7 cultivated in human type O+ red blood cells assessed as reduction in parasite infection incubated for 48 hrs by microscopy. In kind it is functional, organism-based. The note with it: 3D7, 48 h.
Data set [8] can be described thus: Selectivity index, ratio of CC50 for human HeLa cells to IC50 for CQ-sensitive Plasmodium falciparum 3D7. In kind it is functional.
Data set [9] in a line: Cytotoxic activity against human HepG2 cells assessed as cell viability at 1000 ug/ml incubated for 24 hrs by MTT assay. It is filed as cell-based. The note with it: read-out: Activity.
Data set [10] is described as follows: Cytotoxic activity against human HepG2 cells assessed as cell viability at 100 ug/ml incubated for 24 hrs by MTT assay. In kind it is cell-based. The note with it: read-out: Activity.
Data set [11] is described as follows: Cytotoxic activity against human HepG2 cells assessed as cell viability at 10 ug/ml incubated for 24 hrs by MTT assay. In kind it is cell-based. The following applies: read-out: Activity.
A short description of data set [12]: Cytotoxic activity against human HepG2 cells assessed as cell viability at 1 ug/ml incubated for 24 hrs by MTT assay. It is filed as cell-based. The following applies: read-out: Activity.
The nature of data set [13]: Cytotoxic activity against human HepG2 cells assessed as cell viability at 0.1 ug/ml incubated for 24 hrs by MTT assay. In kind it is cell-based. The note with it: read-out: Activity.
Data set [14] can be described thus: Cytotoxic activity against human HepG2 cells assessed as reduction in cell viability incubated for 24 hrs by MTT assay. It is filed as cell-based.
Data set [15] can be described thus: Selectivity index, ratio of CC50 for human HepG2 cells to IC50 for CQ-sensitive Plasmodium falciparum 3D7. It is filed as functional.
The subject of data set [16] is Plasmodium falciparum. The experiment in a line: Antimalarial activity against CQ-resistant Plasmodium falciparum W2 cultivated in human type O+ red blood cells assessed as reduction in parasite infection incubated for 48 hrs by microscopy. It is filed as functional, organism-based. The following applies: W2, 48 h.
The subject of data set [17] is Plasmodium berghei. The experiment in a line: Antimalarial activity against Plasmodium berghei NK65 infected in Swiss albino mouse assessed as parasitemia level at 10 mg/kg, po dosed for four consecutive days beginning on first day of infection and measured on day 7 post infection (reference value: 5.42 +/- 0.79%). It is filed as functional.
For data set [18], the system named is Plasmodium berghei. Description: Antimalarial activity against Plasmodium berghei NK65 infected in Swiss albino mouse assessed as parasitemia level at 10 mg/kg, po dosed for four consecutive days beginning on first day of infection and measured on day 12 post infection (reference value: 8.81 +/- 1.17%). It is filed as functional.
In data set [19] the test system is Plasmodium berghei. Description: Antimalarial activity against Plasmodium berghei NK65 infected in Swiss albino mouse assessed as inhibition of parasitemia at 10 mg/kg, po dosed for four consecutive days beginning on first day of infection and measured on day 7 post infection relative to untreated control. It is filed as functional. The note with it: NK65, 168 h.

The subject of data set [20] is Plasmodium berghei. The experiment in a line: Antimalarial activity against Plasmodium berghei NK65 infected in Swiss albino mouse assessed as inhibition of parasitemia at 10 mg/kg, po dosed for four consecutive days beginning on first day of infection and measured on day 12 post infection relative to untreated control. In kind it is functional. The note with it: NK65, 288 h.

Data set [21] deals with Mus musculus. The experiment in a line: Toxicity in Plasmodium berghei NK65 infected Swiss albino mouse assessed as mouse survival at 10 mg/kg, po dosed for four consecutive days beginning on first day of infection and measured on day 7 post infection relative to untreated control. Set-up: dose 10 mg/kg, route oral. In kind it is organism-based. The following applies: in vivo.

The subject of data set [22] is Mus musculus. The experiment in a line: Toxicity in Plasmodium berghei NK65 infected Swiss albino mouse assessed as mouse survival at 10 mg/kg, po dosed for four consecutive days beginning on first day of infection and measured on day 12 post infection relative to untreated control. The following applies: in vivo. It is filed as organism-based. On the set-up: dose 10 mg/kg, route oral.

In data set [23] the test system is Mus musculus. The experiment in a line: Toxicity in Plasmodium berghei NK65 infected Swiss albino mouse assessed as mouse mortality at 10 mg/kg, po dosed for four consecutive days beginning on first day of infection and measured on day 7 post infection relative to untreated control. In kind it is organism-based. On the set-up: dose 10 mg/kg, route oral. The note with it: in vivo.

Data set [24] relates to Mus musculus. The experiment in a line: Toxicity in Plasmodium berghei NK65 infected Swiss albino mouse assessed as mouse mortality at 10 mg/kg, po dosed for four consecutive days beginning on first day of infection and measured on day 12 post infection relative to untreated control. It is filed as organism-based. Set-up: dose 10 mg/kg, route oral. The following applies: in vivo.

In brackets after ≈: the same amount, converted by molar mass.

Broadly, the CC50 is the concentration at which the toxic effect on the cells reaches its halfway point. Broadly, the IC50 is the concentration at which inhibition is half-maximal. For the compound `O=S(=O)(Nc1nccs1)c1ccc(Nc2ccnc3cc(Cl)ccc23)cc1`, in data set [1], the viability at 24 h, 1000 ug/ml was found to be 12%. For the same compound, the viability at 24 h, 100 ug/ml in data set [2] was found to be 65%. The viability at 24 h, 10 ug/ml in data set [3] turned out to be 60%. For the same compound, the viability at 24 h, 1 ug/ml in data set [4] turned out to be 71%. Besides, the viability at 24 h, 0.1 ug/ml in [5] was 74%. The CC50 at 24 h in data set [6] came out at 334 µg/mL (≈ 801 µM). The IC50 in the data set on Plasmodium falciparum [7] is 5.97 µg/mL (≈ 14.3 µM). Besides, in [8], the “Ratio CC50/IC50” value is 56.

`NS(=O)(=O)c1ccc(Nc2ccnc3cc(Cl)ccc23)cc1`: the viability at 24 h, 1000 ug/ml in data set [9] stood at 43%; in data set [1], 37%. Moreover, the viability at 24 h, 100 ug/ml in data set [10] worked out at 65%; in data set [2] it was 91%. Further, the viability at 24 h, 10 ug/ml in [11] came to 85%; in [3], 100%. Also, the figures for the viability at 24 h, 1 ug/ml in [12] and in data set [4] were 94% and 95%, respectively. For the same compound, the viability at 24 h, 0.1 ug/ml in data set [13] and in [5] was 93% in each case. The values for the cytotoxic concentration (CC50) at 24 h in data set [14] and in [6] were 234 µg/mL (≈ 701 µM) and 793 µg/mL (≈ 2380 µM), respectively. Moreover, the IC50 in the data set on Plasmodium falciparum [7] amounted to 2.18 µg/mL (≈ 6.53 µM). The “Ratio CC50/IC50” value in [15] amounted to 112; in data set [8], 364.

On to `O=S(=O)(Nc1ccccn1)c1ccc(Nc2ccnc3cc(Cl)ccc23)cc1`, for which the viability at 24 h, 1000 ug/ml amounted to 48% in data set [9] and 11% in [1]. The viability at 24 h, 100 ug/ml came out at 57% in [10] and 53% in [2]. Besides, the figures for the viability at 24 h, 10 ug/ml in data set [11] and in data set [3] were 86% and 68%, respectively. The figures for the viability at 24 h, 1 ug/ml in data set [12] and in [4] were 97% and 78%, respectively. In addition, the viability at 24 h, 0.1 ug/ml in data set [13] was determined as 92%; in [5], 82%. Besides, the CC50 at 24 h was determined as 252 µg/mL (≈ 613 µM) in [14] and 113 µg/mL (≈ 275 µM) in data set [6]. Moreover, in the data set on Plasmodium falciparum [7], the IC50 is 3.64 µg/mL (≈ 8.86 µM). Besides, the figures for the “Ratio CC50/IC50” value in data set [15] and in [8] were 69 and 31, respectively.

For the compound `O=S(=O)(Nc1ncccn1)c1ccc(Nc2ccnc3cc(Cl)ccc23)cc1`, the viability at 24 h, 1000 ug/ml in [9] was 68%; in data set [1], 22%. Moreover, the viability at 24 h, 100 ug/ml in [10] and in data set [2] was 75% in each case. Further, the viability at 24 h, 10 ug/ml in data set [11] is 89%; in data set [3] it was 76%. The viability at 24 h, 1 ug/ml is 90% in [12] and 82% in [4]. Moreover, the viability at 24 h, 0.1 ug/ml in data set [13] and in [5] was 85% in each case. The figures for the half-maximal cytotoxic concentration (CC50) at 24 h in [14] and in data set [6] were > 1000 µg/mL and 494 µg/mL (≈ 1200 µM), respectively. In addition, in the data set on Plasmodium falciparum [7], the IC50 was 16.3 µg/mL (≈ 39.6 µM). Also, the “Ratio CC50/IC50” value in data set [15] is >61; in data set [8], 30.

Regarding `Cc1cc(NS(=O)(=O)c2ccc(Nc3ccnc4cc(Cl)ccc34)cc2)no1`, the viability at 24 h, 1000 ug/ml in data set [1] amounted to 17%. Besides, in [2], the viability at 24 h, 100 ug/ml came out at 61%. Also, the viability at 24 h, 10 ug/ml in [3] came out at 59%. The viability at 24 h, 1 ug/ml in data set [4] was determined as 72%. Further, the viability at 24 h, 0.1 ug/ml in data set [5] amounted to 67%. Also, the CC50 at 24 h in data set [6] was found to be 290 µg/mL (≈ 699 µM). In the data set with Plasmodium falciparum [7], the IC50 was found to be 23.8 µg/mL (≈ 57.5 µM). Moreover, the “Ratio CC50/IC50” value in data set [8] is on record as 12.

On to `C[C@H]1[C@H](OC(=O)CCC(=O)O)O[C@@H]2O[C@@]3(C)CC[C@H]4[C@H](C)CC[C@@H]1[C@@]24OO3` [ARTESUNATE], for which, in the data set with Plasmodium falciparum [16], the IC50 was < 0.39 µg/mL.

One may read the inhibition in vivo as the share of the control response that was lost under treatment. Consider `CCN(CC)CCCC(C)Nc1ccnc2cc(Cl)ccc12` (centres undefined) [CHLOROQUINE], for which the viability at 24 h, 1000 ug/ml in data set [9] was 60%; in data set [1], 92%. Besides, the values for the viability at 24 h, 100 ug/ml in [10] and in [2] were 67% and 100%, respectively. Besides, the viability at 24 h, 10 ug/ml was determined as 92% in data set [11] and 97% in [3]. Besides, the results for the viability at 24 h, 1 ug/ml in data set [12] and in data set [4] were 97% and 94%, respectively. In addition, the results for the viability at 24 h, 0.1 ug/ml in [13] and in data set [5] were 93% and 98%, respectively. The CC50 at 24 h in data set [14] and in data set [6] was > 1000 µg/mL throughout. Moreover, the IC50 in the data set with Plasmodium falciparum [7] is < 0.19 µg/mL; with Plasmodium falciparum [16], < 0.39 µg/mL. For the same compound, the “Ratio CC50/IC50” value in data set [15] and in [8] was >1000 in each case. Besides, the Activity is listed as 1.72% in the data set with Plasmodium berghei [17]; 1.55% in the data set on Plasmodium berghei [18]; “Non-toxic” in the data set on Mus musculus [21]; “Non-toxic” in the data set on Mus musculus [22]; “Non-toxic” in the data set with Mus musculus [23]; “Non-toxic” in the data set on Mus musculus [24]. For the same compound, the results for the inhibition in vivo at 10 mg/kg with Plasmodium berghei [19] and with Plasmodium berghei [20] were 68% and 82%, respectively.

Consider `NNC(=O)c1cccnc1` [NICOTINIC ACID HYDRAZIDE], for which the viability at 24 h, 1000 ug/ml in [1] stood at 25%. The viability at 24 h, 100 ug/ml in data set [2] came out at 58%. Further, in data set [3], the viability at 24 h, 10 ug/ml was 92%. The viability at 24 h, 1 ug/ml in [4] is 87%. In data set [5], the viability at 24 h, 0.1 ug/ml amounted to 88%. Moreover, in data set [6], the 50% cytotoxic concentration (CC50) at 24 h was found to be 153 µg/mL (≈ 1120 µM). In addition, the IC50 in the data set with Plasmodium falciparum [7] was > 50 µg/mL. The “Ratio CC50/IC50” value in data set [8] is recorded as <3.06.
